Measured values published in patent US6465506B2, “Instillation techniques for ophthalmic agents to enhance treatment effect” (Ophthalmic Research Associates, Inc., priority 2001, dated 2002).

Test: Pupil diameter after instillation of pilocarpine 1% before vs after TBUT (digital imaging system)
Assay type: in vivo
Settings: 30 μL; for mean decrease from the baseline in pupil diameter: at 30 minutes, 6 normal eyes
Experimental: The following study examines the efficacy of pilocarpine, 1% in constricting the pupil and tropicamide, 1% in dilating the pupil when instilled before and after TBUT. Baseline pupil diameters were determined in 12 normal eyes using a digital imaging system (and controlling illumination). Six (6) of the eyes were dosed with 30 μL of pilocarpine and 6 with 30 μL of tropicamide, all before TBUT. Pupil diameter was measured every minute for 30 minutes after instillation. One day later, the same procedures were repeated in the same eyes, except that the subjects were instructed to stare without blinking (≧6 seconds) before the ophthalmic agents were instilled.

For CC[C@@H]1C(=O)OC[C@@H]1Cc1cncn1C [Pilocarpine, pilocarpine], the “mean decrease from the baseline in pupil diameter” value (instillation after TBUT) was 2.44 units, the “mean decrease from the baseline in pupil diameter” value (instillation before TBUT) was 1.12 units and the “greater pupil constriction with instillation after TBUT vs before TBUT” value (over the 30 minute period) was 29.44%.
